Active and inactive are the calls of the source. The rule behind the calls is not given here.
Each molecule was assayed against Chaperone protein DnaK (Escherichia coli (strain K12)) (UniProt P0A6Y8) (assay: E. coli DnaK SBD ligand binding – biophysical, NMR, chaperone (AID 1033)). Conditions: Purified DnaK SBD.
Sequence of Chaperone protein DnaK (Escherichia coli (strain K12)) (P0A6Y8 whole entry, looked up): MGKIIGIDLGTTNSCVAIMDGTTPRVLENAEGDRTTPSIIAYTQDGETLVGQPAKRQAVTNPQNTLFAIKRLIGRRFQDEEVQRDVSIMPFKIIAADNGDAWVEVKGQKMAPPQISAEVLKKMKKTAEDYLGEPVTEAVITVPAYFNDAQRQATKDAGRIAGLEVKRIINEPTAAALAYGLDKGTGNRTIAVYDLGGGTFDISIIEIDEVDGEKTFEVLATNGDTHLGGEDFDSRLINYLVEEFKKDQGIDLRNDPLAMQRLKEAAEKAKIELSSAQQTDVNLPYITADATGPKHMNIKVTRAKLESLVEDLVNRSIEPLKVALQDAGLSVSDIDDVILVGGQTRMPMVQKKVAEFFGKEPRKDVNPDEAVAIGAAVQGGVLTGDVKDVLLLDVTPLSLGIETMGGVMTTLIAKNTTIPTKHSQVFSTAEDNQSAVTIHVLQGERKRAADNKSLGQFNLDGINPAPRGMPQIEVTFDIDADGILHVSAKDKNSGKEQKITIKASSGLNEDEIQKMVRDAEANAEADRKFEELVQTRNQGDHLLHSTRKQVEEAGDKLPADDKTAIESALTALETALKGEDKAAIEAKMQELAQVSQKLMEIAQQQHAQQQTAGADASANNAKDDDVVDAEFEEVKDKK
With CC(C)Oc1ccc(C2CC(=O)NNC2=O)cc1 (stereo not given) the Kd was > 4 mM (inactive). For O=c1c(O)c(-c2ccc(O)cc2O)oc2cc(O)cc(O)c12, the Kd was > 4 mM (inactive). In the case of COC(=O)C[C@@H]1C2(C)C(=O)[C@@H](CC3=C4CC(=O)O[C@@H](c5ccoc5)[C@]4(C)CCC32)[C@H](OC(C)=O)C1(C)C (stereo not given in full), the Kd is reported as > 4 mM (inactive). For Cc1nnc(NCCCO)[nH]c1=O, the Kd was > 4 mM (inactive). For COc1ccccc1NC(=O)c1ccc(Br)o1, the Kd was > 4 mM (inactive). For Cc1noc(-c2ccccc2)c1CO, the Kd was > 4 mM (inactive). With COc1ccc2c(c1)=C(c1sc(N)nc1O)C(=O)N=2 the Kd was > 4 mM (inactive). In the case of COC1(C)CCC2OC2(C)CCC2C1CC2(C)C (stereo not given), the Kd is reported as > 4 mM (inactive). For NC1=NC(=O)C(Cc2cccc([N+](=O)[O-])c2)S1 (stereo not given), the Kd was > 4 mM (inactive). With CCc1c(C(=O)Nc2ccncc2)csc1C the Kd was > 4 mM (inactive). With NC(=O)CNC(=O)c1ccc2ccccc2n1 the Kd was > 4 mM (inactive). In the case of CNC(=O)C1=NCCCc2cc(OC)c(OC)cc21, the Kd is reported as > 4 mM (inactive). In the case of COC(=O)c1scc(C)c1N, the Kd is reported as > 4 mM (inactive). In the case of OC1CCN(c2nccc(C(F)(F)F)n2)CC1, the Kd is reported as > 4 mM (inactive). With Cc1oc(-c2ccccc2)cc1CO the Kd was > 4 mM (inactive). In the case of COc1cc(-c2csc(C)n2)ccc1O, the Kd is reported as > 4 mM (inactive). In the case of CCC(CCC(C)[C@H]1CCC2C3CC=C4C[C@@H](O)CC[C@]4(C)C3CC[C@@]21C)C(C)C (stereo not given in full), the Kd is reported as > 4 mM (inactive). OC1COCc2nc3ccccc3n2C1 (stereo not given) was tested, and the Kd was > 4 mM (inactive). With COc1cc(O)ccc1C(C)=O the Kd was > 4 mM (inactive). For CNC(=O)c1cc(S(=O)(=O)N(C)C)ccc1Cl, the Kd was > 4 mM (inactive). In the case of O=C(c1ccccc1)c1ccccc1C(=O)N1CCOCC1, the Kd is reported as > 4 mM (inactive). With O=C(CSc1ncccn1)Nc1nccs1 the Kd was > 4 mM (inactive). With COc1ccc(Cl)cc1-c1nc(-c2ccncc2)no1 the Kd was > 4 mM (inactive). O=C1NC(=S)N/C1=C/c1ccc(O)c(Cl)c1 was tested, and the Kd was > 4 mM (inactive). In the case of Cc1cc(C(=O)N2CCN(c3ccccn3)CC2)no1, the Kd is reported as > 4 mM (inactive). In the case of CC(=O)n1nc(-c2cccnc2)nc1N, the Kd is reported as > 4 mM (inactive). Cc1nc(CC(=O)O)c(-c2ccccc2)s1 was tested, and the Kd was > 4 mM (inactive). In the case of CC(=O)O[C@@H]1CC2C(C)(C)C(=O)[C@@H]3O[C@@H]3[C@]2(C)C2CC[C@]3(C)C(=CC(=O)O[C@H]3c3ccoc3)[C@@]21C (stereo not given in full), the Kd is reported as > 4 mM (inactive). In the case of Cc1cc(NC(=O)c2cccc(N3C(=O)CCC3=O)c2)no1, the Kd is reported as > 4 mM (inactive). In the case of O=c1c(O)c(-c2ccccc2)oc2ccccc12, the Kd is reported as > 4 mM (inactive). With C/C=C(\C)c1nnc(NC(=O)c2ccco2)s1 the Kd was > 4 mM (inactive). For Nc1cccc2c(=O)[nH][nH]c(=O)c12, the Kd was > 4 mM (inactive). For O=c1cc(-c2cc(O)c(O)c(O)c2)oc2cc(O)cc(O)c12, the Kd was > 4 mM (inactive). CC1=C(/C=C/C(C)=C/C=C/C(C)=C/C=C/C=C(C)/C=C/C=C(C)/C=C/C(=O)[C@]2(C)C[C@@H](O)CC2(C)C)C(C)(C)C[C@H](O)C1 was tested, and the Kd was > 4 mM (inactive). CC(=O)Nc1ccc(-c2nc(C)c(C(C)=O)n2O)cc1 was tested, and the Kd was > 4 mM (inactive). CCSc1nc2ccccc2n1CC(N)=O was tested, and the Kd was > 4 mM (inactive). COc1ccc2c(c1)c1n[nH]c(=S)nc1n2C was tested, and the Kd was > 4 mM (inactive). In the case of CC(=O)O[C@@H]1CC2C(C)(C)[C@@H](O)CC[C@]2(C)C2CC[C@@]3(C)[C@H](c4ccoc4)OC(=O)[C@H]4O[C@]43[C@@]21C (stereo not given in full), the Kd is reported as > 4 mM (inactive). For NCc1csc(-c2cccs2)n1, the Kd was > 4 mM (inactive). In the case of O=c1/c(=C/c2cccs2)sc2ncnn12, the Kd is reported as > 4 mM (inactive). COc1cc2occc2c2oc(=O)ccc12 was tested, and the Kd was > 4 mM (inactive). For Cc1cc(C(=O)N2CCC3(CC2)OCCO3)cs1, the Kd was > 4 mM (inactive). S=c1nc(C2CC2)[nH]c2ccccc12 was tested, and the Kd was > 4 mM (inactive). For CCOC12NC(=O)CC(=O)N1C(c1ccccc1)=CS2 (stereo not given), the Kd was > 4 mM (inactive). In the case of NC(=O)CSCc1c(Cl)cccc1Cl, the Kd is reported as > 4 mM (inactive). In the case of COC(=O)[C@@]1(C)CCC[C@]2(C)c3ccc(O)c(C(C)C)c3CCC12 (stereo not given in full), the Kd is reported as > 4 mM (inactive). In the case of C=C1C([C@]2(C)C(CC(=O)OC)[C@@](C)(COC(C)=O)OC(=O)C[C@@H]2OC(C)=O)[C@@H](OC=O)[C@H](OC(=O)C(O)C(C)CC)[C@@]2(C)[C@H](c3ccoc3)CC(=O)C12O (stereo not given in full), the Kd is reported as > 4 mM (inactive). In the case of NCc1n[nH]c(=O)c2ccccc12, the Kd is reported as > 4 mM (inactive). With CC(=O)Nc1ccc(-c2ccc3nncn3n2)cc1 the Kd was > 4 mM (inactive). For Cc1ccc(-c2nc(-c3cccnc3)no2)c(C)c1, the Kd was > 4 mM (inactive). With COC(=O)c1ccc2nccnc2c1 the Kd was > 4 mM (inactive). With c1coc(CNc2ncnc3nc[nH]c23)c1 the Kd was > 4 mM (inactive). O=C(Nc1cccc(Cl)c1)c1ccncc1 was tested, and the Kd was > 4 mM (inactive). O=c1c[n+]([O-])c2ccccc2n1OCc1ccccn1 was tested, and the Kd was > 4 mM (inactive). With Cc1noc(C)c1C(=O)N1CCC2(CC1)OCCO2 the Kd was > 4 mM (inactive). Nc1cc(=O)[nH]c(=O)n1Cc1ccco1 was tested, and the Kd was > 4 mM (inactive). In the case of O=c1[nH]c2ccc(S(=O)(=O)NC3CC3)cc2[nH]1, the Kd is reported as > 4 mM (inactive). With O=c1[nH]c(=O)c2[nH]cnc2[nH]1 the Kd was > 4 mM (inactive). In the case of NN1C(=O)CSC1=Nc1ccccc1, the Kd is reported as > 4 mM (inactive). In the case of Cc1[nH]c2ccccc2c1C(=O)CSc1ncn[nH]1, the Kd is reported as > 4 mM (inactive). In the case of O=c1c2ccccc2nc2n1CCC2O (stereo not given), the Kd is reported as > 4 mM (inactive). For CCCNC(=O)CSc1nnc(C)s1, the Kd was > 4 mM (inactive). With CN1C(=O)C(Cc2c[nH]c3ccccc23)C(=O)N(C)C1=O the Kd was > 4 mM (inactive). With O=C(Nc1cccc(Cl)c1)c1cnn2cccnc12 the Kd was > 4 mM (inactive). In the case of Nc1ccc(O)cn1, the Kd is reported as > 4 mM (inactive). With CC(C)c1ccc2c(c1)CCC1C(C)(C(N)=O)CCCC21C (stereo not given) the Kd was > 4 mM (inactive). For Cc1cccc(C(C)C)c1NC(=O)c1cccnc1, the Kd was > 4 mM (inactive). CSc1nn(-c2ccccc2)c(N)c1C#N was tested, and the Kd was > 4 mM (inactive). O=C(NCc1ccc2c(c1)OCO2)c1cccs1 was tested, and the Kd was > 4 mM (inactive). For C=C[C@@](C)(O)CCC1C(=C)CCC2[C@@](C)(CO)CCC[C@]12C (stereo not given in full), the Kd was > 4 mM (inactive). For Cc1ccc(-c2nn(C)c(=O)c3ccccc23)cc1CO, the Kd was > 4 mM (inactive). In the case of CC(=O)NC(O)C(=O)c1cccs1 (stereo not given), the Kd is reported as > 4 mM (inactive). With COc1ccccc1/C=C\C(=O)O the Kd was > 4 mM (inactive). O=C(O)CN(CCCc1ccccc1)CC(=O)O was tested, and the Kd was > 4 mM (inactive). Cc1ccc2[nH]c3nc(=S)[nH]nc3c2c1 was tested, and the Kd was > 4 mM (inactive). In the case of COCCn1cnc2cc(C)c(C)cc21, the Kd is reported as > 4 mM (inactive). In the case of O=C1NC(=Nc2ccc(O)cc2)S/C1=C/c1ccco1, the Kd is reported as > 4 mM (inactive). With O=c1cnnc(NCc2ccc(F)cc2)[nH]1 the Kd was > 4 mM (inactive). In the case of O=C(O)C(Cc1cnc[nH]1)N1C(=O)c2ccccc2C1=O (stereo not given), the Kd is reported as > 4 mM (inactive). With CC(=O)O[C@H]1C[C@@H](OC(C)=O)C(C)(C)C2CC(=O)[C@]3(C)C(CC[C@@]4(C)[C@H](C(=O)O)OC(=O)C5OC543)[C@]21C (stereo not given in full) the Kd was > 4 mM (inactive). Cc1cc(NC(=O)Cc2c(F)cccc2Cl)no1 was tested, and the Kd was > 4 mM (inactive). In the case of CC1(C)Cc2c(c(-c3ccco3)[nH]c(=O)c2C#N)CO1, the Kd is reported as > 4 mM (inactive). For COc1ccc(C(=O)O)cc1OC, the Kd was > 4 mM (inactive). Cn1nnc2cc(C(=O)NC3CCCCC3)ccc21 was tested, and the Kd was > 4 mM (inactive). COC(=O)c1ccc(N2CCCC2)nc1 was tested, and the Kd was > 4 mM (inactive). In the case of CC1(C)NCCN2C(=O)CSC21 (stereo not given), the Kd is reported as > 4 mM (inactive). In the case of Cc1cc(C)c(C#N)c(N2CCCC2)n1, the Kd is reported as > 4 mM (inactive). For COn1c(=O)c(C)[n+]([O-])c2ccccc21, the Kd was > 4 mM (inactive). With O=C(NCc1ccccn1)c1ccc(Br)s1 the Kd was > 4 mM (inactive). O=C(O)CCc1c[nH]c2ccccc12 was tested, and the Kd was > 4 mM (inactive). With CC(=O)c1c(C)n(O)c2ccc3nonc3c12 the Kd was > 4 mM (inactive). OCc1ccc2ncccc2c1 was tested, and the Kd was > 4 mM (inactive). In the case of O=C1CSC2(CN3CCC2CC3)N1 (stereo not given), the Kd is reported as > 4 mM (inactive). For O=C(O)c1ccc2c(c1)CCO2, the Kd was > 4 mM (inactive). For O=C(CCc1ccc(O)cc1)c1c(O)cc(O)cc1O[C@@H]1O[C@H](CO)[C@@H](O)[C@H](O)[C@H]1O, the Kd was > 4 mM (inactive). With Cn1c(O)c(/C=C2\C=CC=N2)c(=O)[nH]c1=O the Kd was > 4 mM (inactive). With CC(C)=NNC(=O)c1ccccc1 the Kd was > 4 mM (inactive). In the case of C=C1C([C@]2(C)C(CC(=O)OC)[C@@](C)(COC(C)=O)OC(=O)C[C@@H]2OC(C)=O)[C@@H](OC=O)[C@H](OC(=O)C(OC(C)=O)C(C)CC)[C@@]2(C)[C@H](c3ccoc3)CC(=O)C12O (stereo not given in full), the Kd is reported as > 4 mM (inactive). With CC(C)n1c(Nn2cnnc2)nc2ccccc21 the Kd was > 4 mM (inactive). For Cn1nc(C(=O)N2CCCC2)c2ccccc2c1=O, the Kd was > 4 mM (inactive). For Cc1ccc(S(=O)(=O)CC(N)=O)cc1, the Kd was > 4 mM (inactive). For O=C(O)CC1C(=O)NCCN1Cc1ccccc1 (stereo not given), the Kd was > 4 mM (inactive). With COc1ccc(C(O)c2nccn2C)cc1 (stereo not given) the Kd was > 4 mM (inactive). With NC(=O)CSc1nnc(-c2cccnc2)o1 the Kd was > 4 mM (inactive). In the case of CN(C)c1n[nH]c(=O)[nH]c1=O, the Kd is reported as > 4 mM (inactive). With CC(=O)c1ccc[nH]1 the Kd was > 4 mM (inactive). With Cc1ccc(-n2cnnn2)c2cccnc12 the Kd was > 4 mM (inactive). COc1cc(O)cc(/C=C/c2ccccc2)c1 was tested, and the Kd was > 4 mM (inactive). CC(CCC(=O)O)[C@H]1CCC2C3C[C@H](O)[C@@H]4C[C@H](O)CC[C@]4(C)C3CC[C@@]21C (stereo not given in full) was tested, and the Kd was > 4 mM (inactive). For C#CCCCCCCCCCCCC(=O)CC(O)COC(C)=O (stereo not given), the Kd was > 4 mM (inactive). Cc1occc1C(=O)Nc1nnc(C2CCCCC2)s1 was tested, and the Kd was > 4 mM (inactive). In the case of O=C1NC2NC(=O)N(c3ccccc3)C2N1 (stereo not given), the Kd is reported as > 4 mM (inactive). For O=C1NC(=Nc2ccccc2)S/C1=C/c1cccnc1, the Kd was > 4 mM (inactive). For NC(=O)c1ccc2c(c1)OCO2, the Kd was > 4 mM (inactive). Cc1cc(O)cc(O)c1C(=O)O was tested, and the Kd was > 4 mM (inactive).

From PubChem BioAssay AID1033 (Sanford-Burnham Center for Chemical Genomics, 2008)
